The record followed here is US5030629A, “Compositions and method comprising heterocyclic compounds containing two heteroatoms as membrane penetration enhancers” (priority 1989, dated 1991).

For series [1] the following is noted: patch, 3% PG, control without enhancer, receptor ethanol/saline (3:7).
Protocol: The skin was placed between the donor and the receptor compartments of diffusion cells in such a way that the dermal side of the skin faced the receptor compartment which was filled with normal saline (pH 7.2-7.4) or appropriate releasing media. The stratum corneum was equilibrated at 37° C. overnight prior to the application of a topical formulation or a transdermal patch. All formulations were studied in triplicate.
(§4) The entire contents of the receptor compartment were removed at specific time intervals for duration of the study period and replenished with fresh saline.
Procedure of Example 39 was repeated with the following two sets of Progesterone (PG) patch formulations. Normal saline in the receptor compartment was replaced with ethanol/saline (3:7).
Series [2] is classed as in vitro ADME, human. The protocol:
Sci. 75, 1094 (1986). […] All formulations were studied in triplicate.
Example 39 was repeated with 1% Diclofenac gel, with and without compound of Example 21, was evaluated. The aliquots were analyzed by U.V. Spectrophotometry and average cumulative amount of drug permeating over 24 hours was calculated.

The nature of series [3]: Penetration of hydrocortisone through hairless mouse skin in diffusion cells. Format: in vitro ADME, hairless mice. The settings on record: for % Penetration (hydrocortisone): 1% hydrocortisone, 2% 1,2-propanediol, 2% enhancer, average for two cells; for penetration enhancing properties as compared to the control (hydrocortisone): in words. The protocol: The compounds of Examples 8 and 13 were tested as penetration enhancing agents according to the procedure below:
(§1) The skin was incubated at 37° C. and the ambient humidity.
(§2) 100 microliters of the solution containing 1 mg of test drug was applied to the epidermal surface within the donor compartment. The entire contents from the 4.2 ml receptor compartment bathing the corium were removed for analysis at 5 or 6, 12 and 24 hours intervals. In each case, the receptor compartment was refilled with 4.2 ml of fresh normal saline.
(§3) The aliquots removed after 5 or 6, 12 and 24 hours were analyzed by HPLC using a C-18 reverse phase column.

Series [4] is described as follows: Penetration of 5-fluorouracil through hairless mouse skin in diffusion cells. Format: in vitro ADME, hairless mice. The settings on record: for % Penetration (5-Fluorouracil): 1% 5-Fluorouracil, 2% enhancer. As for the experimental part: as §1, §2, §3
The compounds of Examples 8 was tested as penetration enhancers according to the procedure outlined under Example 49.

Series [5] can be described thus: Examples 51-62 repeated with other penetration enhancers; comparison as penetration enhancing agents. The settings on record: in words.
The nature of the next series: Hygroscopicity. The class given is physicochemical. The protocol: 34 g (127 mmoles) 1-(2-Hyrdoxyethyl)-2-undecyl-2-imidazoline was dissolved in 300 ml of hexane and 8.5 g […] of acetic acid in 50 ml of hexane were reacted. The precipitate was filtered and then dried at 40°-50° C. under high vacuum for 5 hours. Yield 40.7 g (97.8%).
For series [6] the following is noted: patch, 5% ES, control without enhancer; receptor ethanol/saline (3:7).
Protocol: The compounds of the present invention were tested in vitro as penetration enhancers according to the procedure outlined below. The penetration enhancers were formulated with pharmacologically active agents in creams and patches.
Human stratum corneum was isolated from full thickness human skin as described by Bronaugh et. al., J. Pharm. […] The skin was placed between the donor and the receptor compartments of diffusion cells in such a way that the dermal side of the skin faced the receptor compartment which was filled with normal saline (pH 7.2-7.4) or appropriate releasing media. The stratum corneum was equilibrated at 37° C. overnight prior to the application of a topical formulation or a transdermal patch. All formulations were studied in triplicate.
as §4
Procedure of Example 39 was repeated with the following 17B-Estradiol (ES) patch formulations. Normal saline in the receptor compartment was replaced by ethanol/saline (3:7).

Each structure is given as a SMILES string. Where two headings read alike, the source gives them in different places.

Regarding `CC(=O)[C@H]1CC[C@H]2[C@@H]3CCC4=CC(=O)CC[C@]4(C)[C@H]3CC[C@]12C` [PG, Progesterone], the “Average Cumulative Amount of PG in Micrograms Permeating over 51 Hours” value in series [1] (SET A) is reported as 176.3 ± 92.0 Micrograms; in series [1] (SET B), 25 ± 17 Micrograms.

On to `O=C(O)Cc1ccccc1Nc1c(Cl)cccc1Cl` [Diclofenac, reference compound], for which, in series [2], the “Average Cumulative Amount of Diclofenac in Micrograms permeating over 24 hours” value was 106.7 ± 33.5 Micrograms.

As to `CCCCCCCCCCCC1=NC(C)(C)CO1` [Example 8, 4,4-dimethyl-2-undecyl-2-oxazoline], the “% Penetration (hydrocortisone)” value in series [3] (6 hrs) came out at 16.1%; in series [3] (12 hrs), 28.2%; in series [3] (24 hrs), 49.1%. Also, the “penetration enhancing properties as compared to the control (hydrocortisone)” value in series [3] is on record as “far superior penetration enhancing properties”. For the same molecule, the “% Penetration (5-Fluorouracil)” value in series [4] (6 hrs) stood at 59.2%; in series [4] (12 hrs) it was 60.3%; in series [4] (24 hrs), 60.5%. In series [4] (in words), the “penetration enhancement compared to the control (5-Fluorouracil)” value is “superior to the control”.

For the molecule `CCCCCCCCCCC1COC(C(F)(F)F)=N1` (centres unmarked) [Example 21, 4-Decyl-2-trifluoromethyl-2-oxazoline], the “penetration enhancing, compared with the prior art and the other examples” value in series [5] was “significantly superior penetration enhancing agents”. Further, the “permeation of Diclofenac through human skin compared to control” value in series [2] was “increases the permeation”.

Take `CCCCCCCCCCCC1=NCCN1CCO` [Example 37, 1-(2-Hyrdoxyethyl)-2-undecyl-2-imidazoline acetate]: in the series “Hygroscopicity”, the “behaviour upon absorbing moisture” value is given as “hydrated to a gel upon absorbing moisture” and the “hygroscopicity (hydroscopic [sic])” value is reported as “hydroscopic”.

Turning to `C[C@]12CC[C@@H]3c4ccc(O)cc4CC[C@H]3[C@@H]1CC[C@@H]2O` [ES, 17B-Estradiol], in series [6], the “Average Cumulative Amount of ES in Micrograms Permeating over 51 Hours” value worked out at 30.90 ± 1.00 Micrograms.

Turning to `CCCCCCCCCCCC1=NC(C)(CO)CO1` (centres unmarked) [Example 13, 4-hydroxymethyl-4-methyl-2-undecyl-2-oxazoline], the “% Penetration (hydrocortisone)” value in series [3] (6 hrs) is given as 8.8%; in series [3] (12 hrs), 17.3%; in series [3] (24 hrs), 34.9%. In addition, the “penetration enhancing properties as compared to the control (hydrocortisone)” value in series [3] was “far superior penetration enhancing properties”.
